Experimental data taken from patent publication US6559140B2 (Abbott Laboratories, priority 2000, dated 2003).

Molecular target: H3 receptor (Rattus norvegicus, UniProt Q9QYN8)
Experiment: H3 receptor binding, (3H)-N-α-methylhistamine displacement in rat cortical membranes
Conditions: male Sprague-Dawley rat brain cortical membranes, 30 minutes at 25° C., Cheng-Prusoff, geometric mean values of 2-10 separate experiments

Sequence of H3 receptor (Q9QYN8 1-397 isoform Q9QYN8-3): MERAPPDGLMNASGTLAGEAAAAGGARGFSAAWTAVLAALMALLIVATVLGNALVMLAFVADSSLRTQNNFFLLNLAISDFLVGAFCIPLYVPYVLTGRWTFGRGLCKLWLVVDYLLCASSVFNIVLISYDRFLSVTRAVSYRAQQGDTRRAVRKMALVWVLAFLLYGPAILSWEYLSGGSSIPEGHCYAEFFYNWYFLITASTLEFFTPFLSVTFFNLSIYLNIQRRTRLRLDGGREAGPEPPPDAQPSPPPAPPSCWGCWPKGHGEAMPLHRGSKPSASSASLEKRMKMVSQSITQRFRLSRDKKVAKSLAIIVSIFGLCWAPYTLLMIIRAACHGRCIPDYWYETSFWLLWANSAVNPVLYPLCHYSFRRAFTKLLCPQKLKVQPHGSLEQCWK

Ki [nM] | Compound
3.1 | COc1ccc(OC)c(C(=O)N[C@H](C)C(=O)N2CCN(CCCOc3ccc(C(=O)C4CC4)cc3)CC2)c1 [Example 197, N-[(1R)-2-(4-{3-[4-(cyclopropylcarbonyl)phenoxy]propyl}-1-piperazinyl)-1-methyl-2-oxoethyl]-2,5-dimethoxybenzamide]
25.9 | COc1ccc(-c2nc(-c3ccc(OCCCN4CCN(C(=O)[C@@H](C)NC(=O)c5cccs5)CC4)cc3F)no2)cc1 [Example 198, N-{(1R)-2-[4-(3-{3-fluoro-4-[5-(4-methoxyphenyl)-1,2,4-oxadiazol-3-yl]phenoxy}propyl)-1-piperazinyl]-1-methyl-2-oxoethyl}-2-thiophenecarboxamide]
4.78 | Tert-butyl (1R)-1-benzyl-2-(4-(3-(4-(cyclopropylcarbonyl)phenoxy)propyl)-1-piperazinyl)-2-oxoethylcarbamate [Example 79]
